Data on 14 compounds can be found in PubChem BioAssay (NCI).

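Each compound was tested at five concentrations against cells in 96-well plates for 48 hours. TGI marks complete inhibition of growth.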

Among the test systems are CAKI-1 renal; HT29 colon; SK-MEL-2 melanoma; BT-549 breast; SNB-19 CNS; OVCAR-5 ovarian; SF-268 CNS; K-562 leukemia; MDA-MB-231 breast; HCT-15 colon.
What all share (experiment): NCI anticancer screen, dose series, 48 h

For `O=c1cc(N2CCOCC2)[nH]c(=O)n1-c1ccc(F)cc1`, the TGI in the assay on CAKI-1 renal, with HT29 colon, in the assay with SK-MEL-2 melanoma, in the assay with BT-549 breast, in the assay on SNB-19 CNS and in the assay on OVCAR-5 ovarian was more than 100 µM each time. Further, the TGI with SF-268 CNS, with K-562 leukemia, with MDA-MB-231 breast and with HCT-15 colon was more than 100 µM throughout.

Take `Oc1c(C2=NNC(c3ccc(Cl)cc3Cl)C2)ccc2ccccc12` (configuration not stated): the TGI in the assay with CAKI-1 renal, in the assay with HT29 colon, with SK-MEL-2 melanoma, in the assay with BT-549 breast, in the assay on OVCAR-5 ovarian and in the assay with SF-268 CNS was more than 100 µM each time. Also, the TGI in the assay on K-562 leukemia was 76.9 µM; in the assay with MDA-MB-231 breast, more than 100 µM; in the assay with HCT-15 colon, more than 100 µM.

Consider `CCCn1c2ccccc2c2ccc3c(c21)C(=O)C=CC3=O`, for which the TGI in the assay with CAKI-1 renal is 6.1 µM; with HT29 colon, more than 10 µM; in the assay with SK-MEL-2 melanoma it was more than 10 µM; in the assay on BT-549 breast, 4.9 µM; in the assay on SNB-19 CNS it was more than 10 µM; in the assay on OVCAR-5 ovarian, more than 10 µM. Moreover, the TGI in the assay on SF-268 CNS was more than 10 µM; in the assay with K-562 leukemia, 2.24 µM; with MDA-MB-231 breast, 5.08 µM; in the assay with HCT-15 colon, 4.7 µM.

With `Cc1cc(C)n(C(=C(C(Cl)=C(Cl)Cl)[N+](=O)[O-])n2nc(C)cc2C)n1`, the TGI with CAKI-1 renal amounted to 8.38 µM; in the assay with HT29 colon, 11.5 µM; in the assay on SK-MEL-2 melanoma, 4.18 µM; in the assay with BT-549 breast it was 16.3 µM; in the assay on SNB-19 CNS, 16.2 µM; with OVCAR-5 ovarian it was 22.8 µM. Further, the TGI in the assay on SF-268 CNS amounted to 16.7 µM; in the assay on K-562 leukemia, 5 µM; in the assay on MDA-MB-231 breast it was 27.8 µM; in the assay on HCT-15 colon, 11.4 µM.

With `NS(=O)(=O)c1ccc(N=Nc2nc3[nH]c(=O)[nH]c(=O)c3[nH]2)cc1`, the TGI in the assay with CAKI-1 renal, in the assay on HT29 colon, in the assay with SK-MEL-2 melanoma, in the assay with BT-549 breast, in the assay with SNB-19 CNS and with OVCAR-5 ovarian was more than 100 µM each time. In addition, the TGI in the assay on SF-268 CNS, in the assay with K-562 leukemia, in the assay with MDA-MB-231 breast and with HCT-15 colon was more than 100 µM each time.

For the compound `CC1(C)CC(=O)c2[nH]c3ccccc3c2CC(=O)NCCc2cn1cn2`, the TGI with CAKI-1 renal, in the assay on HT29 colon, in the assay with SK-MEL-2 melanoma, with BT-549 breast, with SNB-19 CNS and in the assay on OVCAR-5 ovarian was more than 100 µM in each case. Besides, the TGI with SF-268 CNS, with K-562 leukemia, with MDA-MB-231 breast and in the assay with HCT-15 colon was more than 100 µM throughout.

Regarding `O=C1C2CC=CCC2C(=O)N1n1c(Cc2ccc(Cl)cc2)n[nH]c1=O` (configuration not stated), the TGI with CAKI-1 renal, with HT29 colon, in the assay with SK-MEL-2 melanoma, with BT-549 breast, in the assay on OVCAR-5 ovarian and in the assay on SF-268 CNS was more than 100 µM in each case. Moreover, the TGI in the assay on K-562 leukemia, with MDA-MB-231 breast and with HCT-15 colon was more than 100 µM each time.

Regarding `CCOC(=O)c1c(-c2ccc(OC)cc2)c(C#N)c(=S)n(C2OC(COC(C)=O)C(OC(C)=O)C(OC(C)=O)C2OC(C)=O)c1-c1ccccc1` (configuration not stated), the TGI in the assay on CAKI-1 renal, with HT29 colon, in the assay on SK-MEL-2 melanoma, in the assay on BT-549 breast, with SNB-19 CNS and with OVCAR-5 ovarian was more than 100 µM throughout. Besides, the TGI in the assay with SF-268 CNS, in the assay on K-562 leukemia, in the assay with MDA-MB-231 breast and with HCT-15 colon was more than 100 µM throughout.

`Nc1ccc(-c2nc3cc(F)ccc3s2)cc1Cl`: the TGI with CAKI-1 renal was more than 100 µM; in the assay on HT29 colon, more than 100 µM; in the assay on SK-MEL-2 melanoma, more than 100 µM; with BT-549 breast it was more than 63.2 µM; with SNB-19 CNS, more than 100 µM; with OVCAR-5 ovarian, 28.8 µM. In addition, the TGI in the assay on SF-268 CNS, in the assay with K-562 leukemia, with MDA-MB-231 breast and with HCT-15 colon was more than 100 µM each time.

In the case of `Cc1c([N+](=O)[O-])ccc2c(NCCCN(C)C)ccnc12`, the TGI in the assay with CAKI-1 renal was more than 100 µM; with HT29 colon, 34.1 µM; with SK-MEL-2 melanoma, 31.8 µM; in the assay on BT-549 breast it was 36.2 µM; with OVCAR-5 ovarian, 92.5 µM; in the assay with SF-268 CNS, more than 100 µM. Also, the TGI with K-562 leukemia was more than 100 µM; with MDA-MB-231 breast it was 56.6 µM; with HCT-15 colon, 32.7 µM.

As for `COc1cc(OC)c(-c2ccc(OCc3ccccc3)c3c(OC)cc(C)cc23)c2c1C(C)=N[C@H](C)C2`, the TGI was more than 12.5 µM in the assay with CAKI-1 renal; 3.84 µM in the assay on HT29 colon; 4.09 µM in the assay with SK-MEL-2 melanoma; 7.93 µM in the assay with BT-549 breast; 4.54 µM in the assay with SNB-19 CNS; 4.44 µM with OVCAR-5 ovarian. The TGI was determined as 3.56 µM with SF-268 CNS, 3.43 µM with K-562 leukemia, 4.18 µM in the assay with MDA-MB-231 breast and 4 µM in the assay with HCT-15 colon.

Consider `COC(=O)CC(C#N)(OP1(=O)OC(c2ccccc2)C(C)N1C)c1ccccc1` (configuration not stated), for which the TGI in the assay on CAKI-1 renal was 69.3 µM; in the assay with HT29 colon, 53.2 µM; with SK-MEL-2 melanoma, 95 µM; in the assay with BT-549 breast it was more than 100 µM; in the assay on SNB-19 CNS, more than 100 µM; in the assay on OVCAR-5 ovarian it was 69.6 µM. The TGI with SF-268 CNS was more than 100 µM; in the assay on K-562 leukemia it was 78.7 µM; in the assay with MDA-MB-231 breast, more than 100 µM; in the assay with HCT-15 colon, more than 100 µM.

For the compound `C=C1C(=O)C[C@H]2C(=C)C(=O)O[C@@H]2C2C1CC[C@@]2(C)O` (some centres not stated), the TGI was 40.3 µM with CAKI-1 renal; 41.1 µM in the assay with HT29 colon; 56.6 µM in the assay on SK-MEL-2 melanoma; 44 µM in the assay on BT-549 breast; more than 100 µM in the assay with SNB-19 CNS; more than 100 µM with OVCAR-5 ovarian. The TGI was more than 100 µM in the assay on SF-268 CNS, more than 100 µM in the assay with K-562 leukemia, 75.2 µM in the assay with MDA-MB-231 breast and 69.2 µM in the assay on HCT-15 colon.

Take `Cc1cc2c(cc1Cl)SC(NS(=O)(=O)c1ccc(Cl)cc1)=NS2(=O)=O`: the TGI with CAKI-1 renal, with HT29 colon, with SK-MEL-2 melanoma, in the assay with BT-549 breast, with SNB-19 CNS and in the assay on OVCAR-5 ovarian was more than 100 µM in each case. Also, the TGI with SF-268 CNS, with K-562 leukemia, in the assay on MDA-MB-231 breast and with HCT-15 colon was more than 100 µM in each case.
